Assay results taken from ChEMBL document CHEMBL1145407, “Structure-activity relationships of alpha-ketooxazole inhibitors of fatty acid amide hydrolase” (J Med Chem, 2007).

Experiments:
[1] = target: T1, Fatty-acid amide hydrolase 1 (Rattus norvegicus, UniProt P97612); assay: Inhibition of rat recombinant FAAH expressed in Escherichia coli
T1 sequence (P97612 whole entry): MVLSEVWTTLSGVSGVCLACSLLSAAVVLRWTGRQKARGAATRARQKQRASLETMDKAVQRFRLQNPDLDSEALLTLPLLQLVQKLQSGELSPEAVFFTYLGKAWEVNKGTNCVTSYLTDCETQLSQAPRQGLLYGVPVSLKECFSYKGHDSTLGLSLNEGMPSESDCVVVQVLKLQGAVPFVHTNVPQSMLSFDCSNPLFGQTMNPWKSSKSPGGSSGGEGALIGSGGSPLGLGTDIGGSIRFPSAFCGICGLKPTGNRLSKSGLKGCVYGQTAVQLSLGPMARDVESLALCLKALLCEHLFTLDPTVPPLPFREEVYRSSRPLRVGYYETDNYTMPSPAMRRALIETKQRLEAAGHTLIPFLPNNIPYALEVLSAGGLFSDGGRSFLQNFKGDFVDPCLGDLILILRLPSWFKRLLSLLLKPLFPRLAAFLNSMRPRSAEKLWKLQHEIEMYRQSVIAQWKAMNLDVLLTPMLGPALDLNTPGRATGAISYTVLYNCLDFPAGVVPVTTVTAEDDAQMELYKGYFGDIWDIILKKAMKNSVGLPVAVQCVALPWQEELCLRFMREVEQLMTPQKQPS

[2] = Selectivity for rat recombinant FAAH over KIAA1363
[3] = Selectivity for rat recombinant FAAH over TGH

Compound	Ki [1]	Ratio IC50 [2]	Ratio IC50 [3]
O=C(CCc1ccc(Sc2ccccc2)cc1)c1ncc(-c2ccccn2)o1		> 50000	30
O=C(CCCCCS(=O)(=O)c1ccccc1)c1ncc(-c2ccccn2)o1	6000 nM		
O=C(CCCCSCc1ccccc1)c1ncc(-c2ccccn2)o1	25 nM		
O=C(O)c1cccc(CCCCCCC(=O)c2ncc(-c3ccccn3)o2)c1	> 600 nM		
O=C(CCCCC[S+]([O-])c1ccccc1)c1ncc(-c2ccccn2)o1 (configuration not stated)	1000 nM		
O=C(c1ncc(-c2ccccn2)o1)C1CC1	> 50000 nM		
O=C(C[S+]([O-])CCCCc1ccccc1)c1ncc(-c2ccccn2)o1 (configuration not stated)	1000 nM		
O=C(CCC(=O)c1ncc(-c2ccccn2)o1)NCCc1ccccc1	> 100000 nM		
O=C(CCC(O)CCCc1ccccc1)c1ncc(-c2ccccn2)o1 (configuration not stated)	500 nM		
O=C(CCc1cccc(OCc2ccccc2)c1)c1ncc(-c2ccccn2)o1		> 1000	20
O=C(CCCCOCc1ccccc1)c1ncc(-c2ccccn2)o1	55 nM		
O=C(CCCC[S+]([O-])Cc1ccccc1)c1ncc(-c2ccccn2)o1 (configuration not stated)	2500 nM		
CN(CCCC(=O)c1ncc(-c2ccccn2)o1)CCc1ccccc1	3500 nM		
COC(=O)CCCC(=O)c1ncc(-c2ccccn2)o1	7000 nM		
O=C(CCCCCCc1cccc(Cl)c1)c1ncc(-c2ccccn2)o1		> 50000	250
O=C(c1ncc(-c2ccccn2)o1)C1CCCC1	2500 nM		
O=C(CCCCC(=O)c1ncc(-c2ccccn2)o1)Nc1ccccc1	3100 nM		
O=C(CCc1ccc(OCc2ccccc2)cc1)c1nc2ncccc2o1		7000	130
O=C(O)c1ccc(CCCCCCC(=O)c2ncc(-c3ccccn3)o2)cc1	> 600 nM		
O=C(CCc1ccc(COc2ccccc2)cc1)c1ncc(-c2ccccn2)o1		> 50000	1000

Compound	Ki [1]	Ratio IC50 [2]	Ratio IC50 [3]
O=C(CCCCC#Cc1cccnc1)c1ncc(-c2ccccn2)o1	300 nM		
O=C(CCCCC(O)Cc1ccccc1)c1ncc(-c2ccccn2)o1 (configuration not stated)	200 nM		
O=C(CCCCCCc1cccc2ccccc12)c1ncc(-c2ccccn2)o1		> 10000	30
O=C(CCc1ccc(Nc2ccccc2)cc1)c1ncc(-c2ccccn2)o1		> 20000	120
O=C(CCc1ccc(Cc2ccccc2)cc1)c1ncc(-c2ccccn2)o1		> 33000	300
O=C(CCCCC#Cc1ccccn1)c1ncc(-c2ccccn2)o1	280 nM		
O=C(CCCC(=O)c1ncc(-c2ccccn2)o1)NCc1ccccc1	20000 nM		
COC(=O)CCCCC(=O)c1ncc(-c2ccccn2)o1	1800 nM		
CN(CCCc1ccccc1)CCC(=O)c1ncc(-c2ccccn2)o1	200 nM		
O=C(CCCCc1ccccc1)CC(=O)c1ncc(-c2ccccn2)o1	> 2000 nM		
CN(CCCCc1ccccc1)CC(O)c1ncc(-c2ccccn2)o1 (configuration not stated)	> 100000 nM		
O=C(CCCCCCc1ccccc1C(=O)O)c1ncc(-c2ccccn2)o1	> 600 nM		
O=C(CCCCS(=O)(=O)Cc1ccccc1)c1ncc(-c2ccccn2)o1	> 10000 nM		
O=C(CCc1ccc(OCc2ccccc2)cc1)c1ncc(-c2ccccn2)o1		> 100000	8000
O=C(CCCC(O)CCc1ccccc1)c1ncc(-c2ccccn2)o1 (configuration not stated)	1500 nM		
O=C(CCl)c1ncc(-c2ccccn2)o1	800 nM		
O=C(CS(=O)(=O)CCCCc1ccccc1)c1ncc(-c2ccccn2)o1	20000 nM		
OC(CCCCCc1ccccc1)C(O)c1ncc(-c2ccccn2)o1 (configuration not stated)	2000 nM		
COC(=O)CCC(=O)c1ncc(-c2ccccn2)o1	> 100000 nM		

Continued by falling Ki [1], values first:

Ki [1]	Ratio IC50 [2]	Ratio IC50 [3]	Compound
200 nM			CN(CCCCC(=O)c1ncc(-c2ccccn2)o1)Cc1ccccc1
150 nM			O=C(CCCCC#Cc1ccncc1)c1ncc(-c2ccccn2)o1
120 nM	> 3300	33	O=C(CCCCCCc1ccccn1)c1ncc(-c2ccccn2)o1
90 nM			O=C(CCOCCCc1ccccc1)c1ncc(-c2ccccn2)o1
75 nM			O=C(CCCCC#Cc1ccc(C(F)(F)F)cc1)c1ncc(-c2ccccn2)o1
63 nM			O=C(CCCOCCc1ccccc1)c1ncc(-c2ccccn2)o1
40 nM			CN(CCCCCC(=O)c1ncc(-c2ccccn2)o1)c1ccccc1
37 nM	> 1000	30	CS(=O)(=O)c1ccccc1CCCCCCC(=O)c1ncc(-c2ccccn2)o1
36 nM			O=C(CCCCC#Cc1ccc(F)cc1)c1ncc(-c2ccccn2)o1
35 nM			O=C(CCCCCC(O)c1ccccc1)c1ncc(-c2ccccn2)o1 (configuration not stated)
35 nM			O=C(CC(O)CCCCc1ccccc1)c1ncc(-c2ccccn2)o1 (configuration not stated)
31 nM			O=C(CCCCC#Cc1ccc([N+](=O)[O-])cc1)c1ncc(-c2ccccn2)o1
30 nM			COC(=O)c1cccc(C#CCCCCC(=O)c2ncc(-c3ccccn3)o2)c1
30 nM			Nc1cccc(CCCCCCC(=O)c2ncc(-c3ccccn3)o2)c1
25 nM			COC(=O)c1ccc(C#CCCCCC(=O)c2ncc(-c3ccccn3)o2)cc1
25 nM			O=C(CCCCC#Cc1ccccc1)c1ncc(-c2ccccn2)o1
23 nM			CC(C)(C)OC(=O)Nc1ccc(C#CCCCCC(=O)c2ncc(-c3ccccn3)o2)cc1
20 nM			O=C(CCCCC#Cc1ccc(Cl)cc1)c1ncc(-c2ccccn2)o1
17 nM			O=C(CCCCC#Cc1ccccc1[N+](=O)[O-])c1ncc(-c2ccccn2)o1

Ki [1]	Ratio IC50 [2]	Ratio IC50 [3]	Compound
16 nM			O=C(CCCCC#Cc1ccccc1C(F)(F)F)c1ncc(-c2ccccn2)o1
14 nM			O=C(CCCCCOc1ccccc1)c1ncc(-c2ccccn2)o1
13 nM			O=C(CCCCC#Cc1ccccc1Cl)c1ncc(-c2ccccn2)o1
12 nM			CC(C)(C)OC(=O)Nc1cccc(C#CCCCCC(=O)c2ncc(-c3ccccn3)o2)c1
10 nM			O=C(CCCCC#Cc1cccc(C(F)(F)F)c1)c1ncc(-c2ccccn2)o1
8 nM			O=C(CCCCC#Cc1ccccc1F)c1ncc(-c2ccccn2)o1
7 nM			O=C(CCCCC#Cc1cccc(Cl)c1)c1ncc(-c2ccccn2)o1
6.5 nM	> 200000	100000	O=C(CCCCCCc1ccc([N+](=O)[O-])cc1)c1ncc(-c2ccccn2)o1
5.6 nM			CC(C)(C)OC(=O)Nc1ccc(CCCCCCC(=O)c2ncc(-c3ccccn3)o2)cc1
5 nM			O=C(CCCCC#Cc1cccc(Cl)c1Cl)c1ncc(-c2ccccn2)o1
4.8 nM			O=C(CCCCC#Cc1cccc([N+](=O)[O-])c1)c1ncc(-c2ccccn2)o1
4 nM	> 3300	230	O=C(CCCCCCc1ccccc1C(F)(F)F)c1ncc(-c2ccccn2)o1
4 nM	> 10000	20	O=C(CCCCCCc1ccc(C(F)(F)F)cc1)c1ncc(-c2ccccn2)o1
4 nM			O=C(CSCCCCc1ccccc1)c1ncc(-c2ccccn2)o1
3.2 nM			O=C(CCCCC#Cc1cccc(F)c1)c1ncc(-c2ccccn2)o1
3 nM	> 3300	100	Cc1ccccc1CCCCCCC(=O)c1ncc(-c2ccccn2)o1
2.4 nM			CC(C)(C)OC(=O)Nc1cccc(CCCCCCC(=O)c2ncc(-c3ccccn3)o2)c1
2.2 nM	> 10000	100	O=C(CCCCCCc1cccc(F)c1)c1ncc(-c2ccccn2)o1
1.5 nM	> 400000	25000	COC(=O)c1ccc(CCCCCCC(=O)c2ncc(-c3ccccn3)o2)cc1
